# According to article PMC9780108, “An intrinsically disordered antimicrobial peptide dendrimer from stereorandomized virtual screening” (Cell Reports. Physical Science, 2022):
# Positions of bridges follow the written chain, without caps; N, C: chain ends. Non-standard residues stand in square brackets, D forms with d. Residues, ends and D or L forms follow the SMILES beside them. Groups on a side chain read outwards from the residue. Chains are numbered I, II in the order given. *: point of attachment. X4 = CC(C)C[C@@H](NC(=O)CCCCCN)C(=O)NCCCC[C@@H](NC(=O)[C@@H](CC(C)C)NC(=O)CCCCCN)C(=O)*; Ahx = NCCCCCC(=O)O
# Legend:
# [1] = system: S aureus COL (methicillin-resistant Staphylococcus aureus); conditions: for MIC at pH 5.0, S aureus COL: COL (methicillin-resistant, pH 5); for MIC at pH 7.4, S aureus COL: COL (methicillin-resistant, pH 7.4); for MIC at pH 8.0, S aureus COL: COL (methicillin-resistant, pH 8)
# HEK293 cell line = format: cell-based; conditions: 48 h
# Experimental: HEK 293 cell line were cultured and maintained in DMEM (Dulbeccos modified Eagle
# medium, Sigma Aldrich) supplemented with 10% FBS (Sigma Aldrich) and 1%
# penicillin/streptomycin. Cells were incubated in a humidified incubator at 37°C in the presence
# HEK 293 cell were seeded into 96 well plates at the density of 2 × 10^3 cells/well and incubated
# in DMEM containing 10% FBS for 10-14 hours at 37°C in the presence of 5% CO2. The next
# day, stock solution of compounds were prepared at concentration of 2 mg/mL in DMEM
# containing 10% FBS. 1/2 or 1/3 serial dilution of the peptide dendrimers from 2 mg/mL or 200
# µg/mL were performed in DMEM containing 10% FBS. The medium was removed from cell
# culture and replaced with the compounds at different concentration after washing with PBS.
# The cells were incubated in DMEM containing 10% FBS at 37°C in the presence of 5% CO 2.
# Negative control was untreated cell culture without compounds and blank control was wells
# without cell but only medium. After 48 hours, a final concentration of 10% AlamarBlue®
# (Thermo Fisher Scientific, Reinach, CH) was added to each well . The cells were incubated for
# 3-5 hours at 37°C with 5% CO 2. The fluorescence was then measured on a Tecan Infinite
# M1000 Pro plate reader at λex = 560 nm and λem = 590 nm. The value was normalized
# according to the untreated cells.
# P. aeruginosa PAO1 = conditions: for MIC at pH 5.0, P. aeruginosa PAO1: PAO1, pH 5; for MIC at pH 7.4, P. aeruginosa PAO1: PAO1, pH 7.4; for MIC at pH 8.0, P. aeruginosa PAO1: PAO1, pH 8
# A. baumannii ATCC 19606 = conditions: for MIC at pH 5.0, A. baumannii ATCC 19606: ATCC 19606, pH 5; for MIC at pH 7.4, A. baumannii ATCC 19606: ATCC 19606, pH 7.4; for MIC at pH 8.0, A. baumannii ATCC 19606: ATCC 19606, pH 8
# K. pneumoniae NCTC 418 = conditions: for MIC at pH 5.0, K. pneumoniae NCTC 418: NCTC 418, pH 5; for MIC at pH 7.4, K. pneumoniae NCTC 418: NCTC 418, pH 7.4; for MIC at pH 8.0, K. pneumoniae NCTC 418: NCTC 418, pH 8
# E. coli W3110 = conditions: for MIC at pH 5.0, E. coli W3110: W3110, pH 5; for MIC at pH 7.4, E. coli W3110: W3110, pH 7.4; for MIC at pH 8.0, E. coli W3110: W3110, pH 8
SMILES,"MIC at pH 5.0, S aureus COL [1]","MIC at pH 7.4, S aureus COL [1]","MIC at pH 8.0, S aureus COL [1]",IC50 HEK293 (HEK293 cell line),"MIC at pH 5.0, P. aeruginosa PAO1 (P. aeruginosa PAO1)","MIC at pH 7.4, P. aeruginosa PAO1 (P. aeruginosa PAO1)","MIC at pH 8.0, P. aeruginosa PAO1 (P. aeruginosa PAO1)","MIC at pH 5.0, A. baumannii ATCC 19606 (A. baumannii ATCC 19606)","MIC at pH 7.4, A. baumannii ATCC 19606 (A. baumannii ATCC 19606)","MIC at pH 8.0, A. baumannii ATCC 19606 (A. baumannii ATCC 19606)","MIC at pH 5.0, K. pneumoniae NCTC 418 (K. pneumoniae NCTC 418)","MIC at pH 7.4, K. pneumoniae NCTC 418 (K. pneumoniae NCTC 418)","MIC at pH 8.0, K. pneumoniae NCTC 418 (K. pneumoniae NCTC 418)","MIC at pH 5.0, E. coli W3110 (E. coli W3110)","MIC at pH 7.4, E. coli W3110 (E. coli W3110)","MIC at pH 8.0, E. coli W3110 (E. coli W3110)"
"CC(C)C[C@@H](NC(=O)[C@@H](CC(C)C)NC(=O)[C@@H](CCCCN)NC(=O)[C@@H](CCCCNC(=O)[C@@H](CC(C)C)NC(=O)[C@@H](CC(C)C)NC(=O)[C@@H](CCCCNC(=O)[C@@H](CC(C)C)NC(=O)[C@@H](CCCCN)NC(=O)[C@@H](CCCCNC(=O)[C@@H](CC(C)C)NC(=O)[C@H](N)CCCCN)NC(=O)[C@@H](CC(C)C)NC(=O)[C@H](N)CCCCN)NC(=O)[C@@H](CC(C)C)NC(=O)[C@@H](CCCCN)NC(=O)[C@@H](CCCCNC(=O)[C@@H](CC(C)C)NC(=O)[C@H](N)CCCCN)NC(=O)[C@@H](CC(C)C)NC(=O)[C@H](N)CCCCN)NC(=O)[C@@H](CC(C)C)NC(=O)[C@@H](CC(C)C)NC(=O)[C@@H](CCCCNC(=O)[C@@H](CC(C)C)NC(=O)[C@@H](CCCCN)NC(=O)[C@@H](CCCCNC(=O)[C@@H](CC(C)C)NC(=O)[C@H](N)CCCCN)NC(=O)[C@@H](CC(C)C)NC(=O)[C@H](N)CCCCN)NC(=O)[C@@H](CC(C)C)NC(=O)[C@@H](CCCCN)NC(=O)[C@@H](CCCCNC(=O)[C@@H](CC(C)C)NC(=O)[C@H](N)CCCCN)NC(=O)[C@@H](CC(C)C)NC(=O)[C@H](N)CCCCN)C(N)=O [D-T25, reference compound] (HELM PEPTIDE1{[dK].[dL].[dK].[dK].[dL].[dK].[dL].[dL].[dK].[dK].[dL].[dL].[am]}|PEPTIDE2{[dK].[dL]}|PEPTIDE3{[dK].[dL].[dK].[dK].[dL].[dK].[dL].[dL]}|PEPTIDE4{[dK].[dL]}|PEPTIDE5{[dK].[dL].[dK].[dK].[dL]}|PEPTIDE6{[dK].[dL]}|PEPTIDE7{[dK].[dL].[dK].[dK].[dL]}|PEPTIDE8{[dK].[dL]}$PEPTIDE1,PEPTIDE2,3:R3-2:R2|PEPTIDE3,PEPTIDE4,3:R3-2:R2|PEPTIDE5,PEPTIDE6,3:R3-2:R2|PEPTIDE7,PEPTIDE8,3:R3-2:R2|PEPTIDE1,PEPTIDE7,6:R3-5:R2|PEPTIDE1,PEPTIDE3,9:R3-8:R2|PEPTIDE3,PEPTIDE5,6:R3-5:R2$$$V2.0)",> 64 μg/mL,> 64 μg/mL,32 μg/mL,33 ± 3 µg/mL,32 μg/mL,8 μg/mL,8 μg/mL,32 μg/mL,8 μg/mL,4 μg/mL,> 64 μg/mL,16 μg/mL,16 μg/mL,32 μg/mL,8 μg/mL,4 μg/mL
"CC(C)C[C@@H](NC(=O)[C@@H](CC(C)C)NC(=O)[C@@H](CC(C)C)NC(=O)[C@@H](CCCCNC(=O)[C@@H](CC(C)C)NC(=O)[C@@H](CC(C)C)NC(=O)[C@@H](CCCCNC(=O)[C@@H](CCCCN)NC(=O)[C@@H](CC(C)C)NC(=O)[C@@H](CCCCNC(=O)[C@@H](CC(C)C)NC(=O)[C@H](N)CCCCN)NC(=O)[C@@H](CC(C)C)NC(=O)[C@H](N)CCCCN)NC(=O)[C@@H](CCCCN)NC(=O)[C@@H](CC(C)C)NC(=O)[C@@H](CCCCNC(=O)[C@@H](CC(C)C)NC(=O)[C@H](N)CCCCN)NC(=O)[C@@H](CC(C)C)NC(=O)[C@H](N)CCCCN)NC(=O)[C@@H](CC(C)C)NC(=O)[C@@H](CC(C)C)NC(=O)[C@@H](CCCCNC(=O)[C@@H](CCCCN)NC(=O)[C@@H](CC(C)C)NC(=O)[C@@H](CCCCNC(=O)[C@@H](CC(C)C)NC(=O)[C@H](N)CCCCN)NC(=O)[C@@H](CC(C)C)NC(=O)[C@H](N)CCCCN)NC(=O)[C@@H](CCCCN)NC(=O)[C@@H](CC(C)C)NC(=O)[C@@H](CCCCNC(=O)[C@@H](CC(C)C)NC(=O)[C@H](N)CCCCN)NC(=O)[C@@H](CC(C)C)NC(=O)[C@H](N)CCCCN)C(N)=O [D-X18] (HELM PEPTIDE1{[dK].[dL].[dK].[dL].[dK].[dK].[dL].[dL].[dK].[dL].[dL].[dL].[am]}|PEPTIDE2{[dK].[dL]}|PEPTIDE3{[dK].[dL].[dK].[dL].[dK].[dK].[dL].[dL]}|PEPTIDE4{[dK].[dL]}|PEPTIDE5{[dK].[dL].[dK].[dL].[dK]}|PEPTIDE6{[dK].[dL]}|PEPTIDE7{[dK].[dL].[dK].[dL].[dK]}|PEPTIDE8{[dK].[dL]}$PEPTIDE1,PEPTIDE2,3:R3-2:R2|PEPTIDE3,PEPTIDE4,3:R3-2:R2|PEPTIDE5,PEPTIDE6,3:R3-2:R2|PEPTIDE7,PEPTIDE8,3:R3-2:R2|PEPTIDE1,PEPTIDE7,6:R3-5:R2|PEPTIDE1,PEPTIDE3,9:R3-8:R2|PEPTIDE3,PEPTIDE5,6:R3-5:R2$$$V2.0)",> 64 μg/mL,> 64 μg/mL,32 μg/mL,47 ± 12 µg/mL,32 μg/mL,64 μg/mL,32 μg/mL,32 μg/mL,64 μg/mL,32 μg/mL,>64/>64/>64 μg/mL,>64/>64/>64 μg/mL,>64/>64/>64 μg/mL,32 μg/mL,64 μg/mL,32 μg/mL
CC(C)C[C@@H](NC(=O)[C@@H](CC(C)C)NC(=O)[C@@H](CC(C)C)NC(=O)[C@@H](CCCCNC(=O)[C@@H](CC(C)C)NC(=O)[C@@H](CC(C)C)NC(=O)[C@@H](CCCCNC(=O)[C@@H](CCCCN)NC(=O)[C@@H](CC(C)C)NC(=O)[C@@H](CCCCNC(=O)[C@@H](CC(C)C)NC(=O)CCCCCN)NC(=O)[C@@H](CC(C)C)NC(=O)CCCCCN)NC(=O)[C@@H](CCCCN)NC(=O)[C@@H](CC(C)C)NC(=O)[C@@H](CCCCNC(=O)[C@@H](CC(C)C)NC(=O)CCCCCN)NC(=O)[C@@H](CC(C)C)NC(=O)CCCCCN)NC(=O)[C@@H](CC(C)C)NC(=O)[C@@H](CC(C)C)NC(=O)[C@@H](CCCCNC(=O)[C@@H](CCCCN)NC(=O)[C@@H](CC(C)C)NC(=O)[C@@H](CCCCNC(=O)[C@@H](CC(C)C)NC(=O)CCCCCN)NC(=O)[C@@H](CC(C)C)NC(=O)CCCCCN)NC(=O)[C@@H](CCCCN)NC(=O)[C@@H](CC(C)C)NC(=O)[C@@H](CCCCNC(=O)[C@@H](CC(C)C)NC(=O)CCCCCN)NC(=O)[C@@H](CC(C)C)NC(=O)CCCCCN)C(N)=O [D-aX18] (I: H-[Ahx][dL][dK]([dL-Ahx])[dL][dK][dK]([dK-dL-X4])[dL][dL][dK][dL][dL][dL]-NH2 / II: H-[Ahx][dL][dK]([dL-Ahx])[dL][dK][dK]([dK-dL-X4])[dL][dL]; amide I:9-II:C),> 64 μg/mL,> 64 μg/mL,16 μg/mL,21 ± 2 µg/mL,64/>64/64 μg/mL,64/>64/64 μg/mL,64/>64/64 μg/mL,32 μg/mL,> 64 μg/mL,16 μg/mL,>64/>64/>64 μg/mL,>64/>64/>64 μg/mL,>64/>64/>64 μg/mL,32 μg/mL,> 64 μg/mL,32 μg/mL
